The source of these data is patent US20110224079A1, “SPIROHETEROCYCLIC N-OXYAMIDES AS PESTICIDES” (SYNGENTA CROP PROTECTION LLC, priority 2008, published 2011).

Some results are limits rather than exact numbers.

Experiment [1] has as its system Aphis Craccivora (cowpea aphid). The experiment is described as follows: Example B11: translaminar activity against Aphis craccivora on French bean leaves. Type of experiment: in vivo. Particulars: 120 h, upper leaf side painted, aphids on lower side, 5 days. The protocol:
Translaminar Activity Against Aphis Craccivora (Cowpea Aphid)
French bean leaves (Phaseolus vulgaris) are infested with about 20 mixed age individuals on the lower leaf side using clip cages. 1 day after the infestation, the upper side of the leaves is treated with the test solution by painting. 5 days later, samples are checked for mortality.

The subject of experiment [2] is Myzus persicae (green peach aphid). The experiment in a line: Example B13: drench activity against Myzus persicae, pea seedlings in field soil. The note with it: 168 h, read-out: drench activity (mortality).
Experiment [3] relates to Nilaparvata lugens (brown rice planthopper). The experiment in a line: Example B8: activity against Nilaparvata lugens, sprayed rice seedlings (larvicide, feeding/contact). The note with it: in Oryza sativa, read-out: activity (mortality, growth regulation, effects on F1 generation).
The test system of experiment [4] is Myzus persicae (green peach aphid). The experiment is described as follows: Example B2: activity against Myzus persicae, pea seedling roots in test solution (systemic/feeding, curative). Particulars: 144 h, read-out: activity (mortality).
Experiment [5] has the same test system. The experiment in a line: Example B1: activity against Myzus persicae, sprayed sunflower leaf discs (feeding/residual contact, preventive). The note with it: foliar, 144 h, read-out: activity (mortality).
Experiment [6] deals with Tetranychus urticae (two-spotted spider mite). The experiment is described as follows: Example B4: activity against Tetranychus urticae, sprayed bean leaf discs (feeding/residual contact, preventive). Particulars: foliar, 192 h, read-out: activity (egg, larval and adult mortality).
For experiment [7], the system named is Thrips tabaci (onion thrips). The experiment in a line: Example B3: activity against Thrips tabaci, sprayed sunflower leaf discs (feeding/residual contact, preventive). Type of experiment: in vivo. Particulars: foliar, 144 h, mixed population, 6 days. The source says: Activity Against Thrips tabaci (Onion Thrips)
(Mixed Population, Feeding/Residual Contact Activity, Preventive)

Experiment [8] concerns Aphis Craccivora (cowpea aphid). The experiment in a line: Example B10: activity against Aphis craccivora, pea seedling roots in test solution (systemic/feeding). Particulars: 144 h, roots of infested pea seedlings in test solution, 6 days. It is filed as in vivo. The source says:
Activity Against Aphis Craccivora (Cowpea Aphid)
(Mixed Population, Systemic/Feeding)

Experiment [9] has as its system Myzus persicae (green peach aphid). The experiment in a line: Example B17: activity against Myzus persicae on sprayed pepper plants (feeding/residual contact). The note with it: 144 h, infested pepper plants sprayed, 6 days. It is filed as in vivo.
Experiment [10] deals with Bemisia tabaci (tobacco white fly). The experiment in a line: Example B7: activity against Bemisia tabaci, sprayed bean plants (larvicide, contact/feeding). Particulars: 504 h, bean plants with N-2 nymphs sprayed, three weeks, read-out: activity (efficacy, number of emerged adults). It is filed as in vivo. As to the method:
Activity Against Bemisia tabaci (Tobacco White Fly)
(Larvicide, Contact/Feeding)
Bean plants are infested with 20-30 adults that were removed after a 4 day egg-laying period. After another 7 days, bean plants with hatched nymphs (N-2) are treated (2 replicates) with the test solutions in a spray chamber. Three weeks later, samples are checked for number of emerged adults. Efficacy was calculated by comparing number of emerged adults in treated and non treated samples.

With `COCON1C(=O)C(c2cc(C)ccc2C)=C(OC(=O)C2CC2)C12CCN(OC)CC2` [P1.4, Cyclopropanecarboxylic acid 3-(2,5-dimethyl-phenyl)-8-methoxy-1-methoxymethoxy-2-oxo-1,8-diaza-spiro[4.5]dec-3-en-4-yl ester], the mortality at 400 ppm in experiment [1], in experiment [3], in experiment [4], in [5] and in experiment [6] was greater than 80% each time. In addition, the mortality at 25 ppm in experiment [2] was greater than 80%.

Turning to `CCOC(=O)OC1=C(c2cc(C)ccc2C)C(=O)N(O)C12CCN(OC)CC2` [P1.12], the mortality at 400 ppm in experiment [7], in experiment [3], in experiment [4] and in experiment [5] was greater than 80% in each case.

In the case of `CCOC(=O)OC1=C(c2c(C)cc(C)cc2C)C(=O)N(OCC2(C)COC2)C12CCN(OC)CC2` [P1.23], the mortality at 400 ppm in experiment [8], in [1] and in experiment [4] was greater than 80% each time. Further, the mortality at 25 ppm in experiment [2] is greater than 80%.

Consider `CCOC(=O)OC1=C(c2c(C)cc(C)cc2C)C(=O)N(OCC2CCCO2)C12CCN(OC)CC2` (stereo not shown) [P1.24], for which the mortality at 400 ppm in experiment [8], in experiment [1], in experiment [3], in experiment [4], in [5] and in [6] was greater than 80% each time. Moreover, the mortality at 200 ppm in experiment [9] is no less than 80%. The mortality at 25 ppm in experiment [2] is greater than 80%.

On to `CCOC(=O)OC1=C(c2c(C)cc(C)cc2C)C(=O)N(OCCOC2CCCCO2)C12CCN(OC)CC2` (stereo not shown) [P1.25], for which the mortality at 400 ppm in [8], in experiment [3] and in experiment [6] was greater than 80% in each case.

For `CCOC(=O)OC1=C(c2ccc(C)cc2C)C(=O)N(OC2CCCO2)C12CCN(OC)CC2` (stereo not shown) [P1.47], the mortality at 400 ppm in experiment [7], in experiment [4], in [5] and in experiment [6] was greater than 80% throughout.

As for `CCOC(=O)OC1=C(c2c(C)ccc(C)c2C)C(=O)N(OCOC)C12CCN(OC)CC2` [P1.53], the mortality at 400 ppm in experiment [8], in experiment [1], in experiment [3] and in experiment [4] was greater than 80% in each case. Besides, the mortality at 200 ppm in experiment [9] is no less than 80%. In addition, the mortality at 25 ppm in experiment [2] was greater than 80%.

In the case of `CCOC(=O)OC1=C(c2c(C)ccc(Cl)c2C)C(=O)N(OCOC)C12CCN(OC)CC2` [P1.55], the mortality at 400 ppm in experiment [8], in [1], in experiment [3], in [4] and in experiment [5] was greater than 80% each time. Further, the mortality at 200 ppm in experiment [9] was no less than 80%. The mortality at 25 ppm in [2] was greater than 80%.

`CCOC(=O)OC1=C(c2c(C)ccc(C)c2Cl)C(=O)N(OCOC)C12CCN(OC)CC2` [P1.59]: the mortality at 400 ppm in experiment [8], in experiment [1], in [3], in experiment [4], in [5] and in experiment [6] was greater than 80% in each case. In experiment [2], the mortality at 25 ppm was greater than 80%.

As for `CCOC(=O)OC1=C(c2c(C)cc(Br)cc2C)C(=O)N(OCOC)C12CCN(OC)CC2` [P1.62], in experiment [7], the mortality at 400 ppm was greater than 80%.

`CCOC(=O)OC1=C(c2c(C)cc(C)cc2Cl)C(=O)N(OC)C12CCN(OC)CC2` [P1.70]: the mortality at 400 ppm in [8], in experiment [1], in [3], in [4] and in [5] was greater than 80% throughout. The mortality at 25 ppm in [2] was greater than 80%.

As to `CCOC(=O)OC1=C(c2c(C)cc(C)cc2C)C(=O)N(OCC2CCOC2)C12CCN(OC)CC2` (stereo not shown) [P1.78], the pest or weed control at 200 ppm in [10] is greater than 80%. For the same compound, the mortality at 400 ppm in experiment [8], in experiment [1], in experiment [3], in experiment [4] and in [6] was greater than 80% throughout. The same compound gave a mortality at 200 ppm in [9] of no less than 80%. The mortality at 25 ppm in experiment [2] was greater than 80%.

For `CCOC(=O)OC1=C(c2c(C)cc(C)cc2C)C(=O)N(OCc2ccco2)C12CCN(OC)CC2` [P1.81], the mortality at 400 ppm in [7], in [4], in experiment [5] and in experiment [6] was greater than 80% throughout. This compound registered a mortality at 200 ppm in [9] of no less than 80%.

Take `CCOC(=O)OC1=C(c2c(C)cc(C)cc2Cl)C(=O)N(OC2CCCO2)C12CCN(OC)CC2` (stereo not shown) [P1.107]: the mortality at 400 ppm in [8], in experiment [1], in [3], in experiment [4] and in experiment [5] was greater than 80% each time. Further, the mortality at 200 ppm in experiment [9] was no less than 80%. Further, in experiment [2], the mortality at 25 ppm is greater than 80%.

For `CON1CCC2(CC1)C(O)=C(c1c(C)cc(C)cc1C)C(=O)N2OCC1(C)COC1` [P2.19], the mortality at 400 ppm in experiment [8], in experiment [1], in experiment [3], in [4], in experiment [5] and in experiment [6] was greater than 80% throughout. This compound also gave a mortality at 200 ppm in experiment [9] of no less than 80%.

On to `CON1CCC2(CC1)C(O)=C(c1c(C)cc(C)cc1C)C(=O)N2OC1CCOCC1` [P2.21], for which the mortality at 400 ppm in experiment [8], in experiment [1], in experiment [3], in experiment [4], in experiment [5] and in experiment [6] was greater than 80% in each case. This compound yielded a mortality at 200 ppm in experiment [9] of no less than 80%. In addition, the mortality at 25 ppm in experiment [2] is greater than 80%.

On to `CON1CCC2(CC1)C(O)=C(c1c(C)cc(C)cc1C)C(=O)N2OCC1CCCCO1` (stereo not shown) [P2.23], for which the mortality at 400 ppm in experiment [8], in experiment [1], in experiment [3], in [4] and in experiment [5] was greater than 80% throughout.

As for `CON1CCC2(CC1)C(O)=C(c1ccc(C)cc1C)C(=O)N2OC` [P2.51], the mortality at 400 ppm in experiment [7], in [4] and in experiment [5] was greater than 80% each time.

On to `COCCON1C(=O)C(c2c(C)cc(C)cc2Br)=C(O)C12CCN(OC)CC2` [P2.57], for which the mortality at 400 ppm in experiment [8], in [1], in experiment [3], in experiment [4], in experiment [5] and in experiment [6] was greater than 80% each time. Besides, in experiment [2], the mortality at 25 ppm was greater than 80%.

For `CON1CCC2(CC1)C(O)=C(c1c(C)cc(Br)cc1C)C(=O)N2OC1CCCO1` (stereo not shown) [P2.62], the mortality at 400 ppm in [7] and in experiment [4] was greater than 80% each time. In addition, the mortality at 200 ppm in experiment [9] is no less than 80%.

`CON1CCC2(CC1)C(O)=C(c1c(C)cc(C)cc1C)C(=O)N2OCc1ccoc1` [P2.64]: in experiment [10], the pest or weed control at 200 ppm was greater than 80%. Further, the mortality at 400 ppm in experiment [8], in [1], in [3], in experiment [4], in [5] and in experiment [6] was greater than 80% throughout. This compound displayed a mortality at 200 ppm in experiment [9] of no less than 80%. For the same compound, the mortality at 25 ppm in experiment [2] is greater than 80%.

As to `CON1CCC2(CC1)C(O)=C(c1c(C)cc(C)cc1C)C(=O)N2OCC1CCOC1` (stereo not shown) [P2.67], the mortality at 400 ppm in experiment [7], in experiment [4], in experiment [5] and in experiment [6] was greater than 80% each time. In addition, the mortality at 200 ppm in [9] is no less than 80%.

`COCCON1C(=O)C(c2c(C)cccc2C)=C(O)C12CCN(OC)CC2` [P2.77]: the mortality at 400 ppm in experiment [7], in experiment [4] and in experiment [5] was greater than 80% throughout. In [9], the mortality at 200 ppm is no less than 80%.

As to `CON1CCC2(CC1)C(O)=C(c1c(C)cc(C)cc1C)C(=O)N2OCC1CCOCC1` [P2.84], the mortality at 400 ppm in experiment [7], in [4] and in experiment [5] was greater than 80% each time.
